# Read-outs that look alike come from different tables or passages of the source.
# Columns and labels:
# BMX = biological target: T1, BMX (Homo sapiens, UniProt P51813); assay: KINOMEscan; assay type: binding; details: 1.0 µM
# T1 construct: purchased Eurofins/DiscoverX KINOMEscan scanMAX
# Procedure: (§1) Kinase retention to the immobilized ligand is then measured using quantitative real-time PCR for each kinase-specific DNA barcode.
# PIK3CA(Q546K) = biological target: T2, PIK3CA(Q546K) (Homo sapiens, UniProt P42336, Q546K); assay: KINOMEscan; assay type: binding; details: 1.0 µM
# T2 construct: purchased Eurofins/DiscoverX KINOMEscan scanMAX
# Procedure: as §1
# PIK4CB = biological target: T3, PIK4CB (Homo sapiens, UniProt Q9UBF8); assay: KINOMEscan; assay type: binding; details: 1.0 µM
# T3 construct: purchased Eurofins/DiscoverX KINOMEscan scanMAX
# Procedure: as §1
# AXL = biological target: T4, AXL (Homo sapiens, UniProt P30530); assay: KINOMEscan; assay type: binding; details: 1.0 µM
# T4 construct: purchased Eurofins/DiscoverX KINOMEscan scanMAX
# Procedure: as §1
# SIK2 = biological target: T5, SIK2 (Homo sapiens, UniProt Q9H0K1); assay: KINOMEscan; assay type: binding; details: 1.0 µM
# T5 construct: purchased Eurofins/DiscoverX KINOMEscan scanMAX
# Procedure: as §1
# WNK4 = biological target: T6, WNK4 (Homo sapiens, UniProt Q96J92); assay: KINOMEscan; assay type: binding; details: 1.0 µM
# T6 construct: DNA tag (qPCR barcode); purchased Eurofins/DiscoverX KINOMEscan scanMAX
# Procedure: as §1
# DAPK2 = biological target: T7, DAPK2 (Homo sapiens, UniProt Q9UIK4); assay: KINOMEscan; assay type: binding; details: 1.0 µM
# T7 construct: purchased Eurofins/DiscoverX KINOMEscan scanMAX
# Procedure: as §1
# OSR1 = biological target: T8, OSR1 (Homo sapiens, UniProt O95747); assay: KINOMEscan; assay type: binding; details: 1.0 µM
# T8 construct: purchased Eurofins/DiscoverX KINOMEscan scanMAX
# Procedure: as §1
# ULK1 = biological target: T9, ULK1 (Homo sapiens, UniProt O75385); assay: KINOMEscan; assay type: binding; details: 1.0 µM
# T9 construct: DNA tag (qPCR barcode); purchased Eurofins/DiscoverX KINOMEscan scanMAX
# Procedure: as §1
# PRKG2 = biological target: T10, PRKG2 (Homo sapiens, UniProt Q13237); assay: KINOMEscan; assay type: binding; details: 1.0 µM
# T10 construct: purchased Eurofins/DiscoverX KINOMEscan scanMAX
# Procedure: as §1
# TAOK2 = biological target: T11, TAOK2 (Homo sapiens, UniProt Q9UL54); assay: KINOMEscan; assay type: binding; details: 1.0 µM
# T11 construct: purchased Eurofins/DiscoverX KINOMEscan scanMAX
# Procedure: as §1
# CAMK2D = biological target: T12, CAMK2D (Homo sapiens, UniProt Q13557); assay: KINOMEscan; assay type: binding; details: 1.0 µM
# T12 construct: purchased Eurofins/DiscoverX KINOMEscan scanMAX
# Procedure: as §1
# IRAK1 = biological target: T13, IRAK1 (Homo sapiens, UniProt P51617); assay: KINOMEscan; assay type: binding; details: 1.0 µM
# T13 construct: purchased Eurofins/DiscoverX KINOMEscan scanMAX
# Procedure: as §1
# NLK = biological target: T14, NLK (Homo sapiens, UniProt Q9UBE8); assay: KINOMEscan; assay type: binding; details: 1.0 µM
# T14 construct: purchased Eurofins/DiscoverX KINOMEscan scanMAX
# Procedure: as §1
# BRSK2 = biological target: T15, BRSK2 (Homo sapiens, UniProt Q8IWQ3); assay: KINOMEscan; assay type: binding; details: 1.0 µM
# T15 construct: purchased Eurofins/DiscoverX KINOMEscan scanMAX
# Procedure: as §1
# PFCDPK1(P.falciparum) = biological target: T16, PFCDPK1(P.falciparum) (Plasmodium falciparum, UniProt P62344); assay: KINOMEscan; assay type: binding; details: 1.0 µM
# T16 construct: purchased Eurofins/DiscoverX KINOMEscan scanMAX
# Procedure: as §1
# BMPR1B = biological target: T17, BMPR1B (Homo sapiens, UniProt O00238); assay: KINOMEscan; assay type: binding; details: 1.0 µM
# T17 construct: purchased Eurofins/DiscoverX KINOMEscan scanMAX
# Procedure: as §1
# CDC2L2 = biological target: T18, CDC2L2 (Homo sapiens, UniProt Q9UQ88); assay: KINOMEscan; assay type: binding; details: 1.0 µM
# T18 construct: purchased Eurofins/DiscoverX KINOMEscan scanMAX
# Procedure: as §1
# FLT3(D835V) = biological target: T19, FLT3(D835V) (Homo sapiens, UniProt P36888, D835V); assay: KINOMEscan; assay type: binding; details: 1.0 µM
# T19 construct: purchased Eurofins/DiscoverX KINOMEscan scanMAX
# Procedure: as §1
# MAP3K2 = biological target: T20, MAP3K2 (Homo sapiens, UniProt Q9Y2U5); assay: KINOMEscan; assay type: binding; details: 1.0 µM
# T20 construct: purchased Eurofins/DiscoverX KINOMEscan scanMAX
# Procedure: as §1
# NEK7 = biological target: T21, NEK7 (Homo sapiens, UniProt Q8TDX7); assay: KINOMEscan; assay type: binding; details: 1.0 µM
# T21 construct: purchased Eurofins/DiscoverX KINOMEscan scanMAX
# Procedure: as §1
# NEK10 = biological target: T22, NEK10 (Homo sapiens, UniProt Q6ZWH5); assay: KINOMEscan; assay type: binding; details: 1.0 µM
# T22 construct: purchased Eurofins/DiscoverX KINOMEscan scanMAX
# Procedure: as §1
# MST1 = biological target: T23, MST1 (Homo sapiens, UniProt Q13043); assay: KINOMEscan; assay type: binding; details: 1.0 µM
# T23 construct: purchased Eurofins/DiscoverX KINOMEscan scanMAX
# Procedure: as §1
# TXK = biological target: T24, TXK (Homo sapiens, UniProt P42681); assay: KINOMEscan; assay type: binding; details: 1.0 µM
# T24 construct: DNA tag (qPCR barcode); purchased Eurofins/DiscoverX KINOMEscan scanMAX
# Procedure: as §1
# PIK3CA(I800L) = biological target: T25, PIK3CA(I800L) (Homo sapiens, UniProt P42336, I800L); assay: KINOMEscan; assay type: binding; details: 1.0 µM
# T25 construct: purchased Eurofins/DiscoverX KINOMEscan scanMAX
# Procedure: as §1
# KIT(V559D) = biological target: T26, KIT(V559D) (Homo sapiens, UniProt P10721, V559D); assay: KINOMEscan; assay type: binding; details: 1.0 µM
# T26 construct: purchased Eurofins/DiscoverX KINOMEscan scanMAX
# Procedure: as §1
# FLT3(ITD,D835V) = assay: KINOMEscan; assay type: binding, human; details: 1.0 µM
# Procedure: as §1
# [1] = test system: parental TF-1 cells (GM-CSF); assay: CellTiter-Blue cell viability; assay type: cell-based, human; details: at 3.0 μM; 72 hours; in the presence of GM-CSF
# Procedure: TF-1 and MV4-11 cells were obtained from the American Type Culture Collection (ATCC) and cultured in RPMI 1640 medium supplemented with 10% fetal bovine serum (FBS), 100 units/ml of penicillin, 100 μg/ml of streptomycin sulfate, and 0.25 μg/ml of amphotericin B (Antibiotic-Antimycotic; Gibco/ThermoFisher). Parental TF-1 cells also require recombinant human GM-CSF (1 ng/mL; ThermoFisher). MOLM13 and MOLM14 cells were obtained from Leibniz Institute Deutsche Sammlung von Mikroorganismen (DSMZ) and grown in RPMI 1640 medium containing 20% FBS and Antibiotic-Antimycotic. Human 293T cells were obtained from ATCC and cultured in Dulbecco's modified Eagle's medium (DMEM) containing 10% FBS and Antibiotic-Antimycotic.
# Cells were seeded at 10^5 per mL in the presence or absence of inhibitors with DMSO as carrier solvent (0.1% final). Cell viability was assessed using the CellTiter-Blue reagent according to the manufacturer’s instructions (Promega). Fluorescence intensity, which correlates directly with viable cell number, was measured using a SpectraMax M5 microplate reader. Each experiment included three technical replicates per condition, and each experiment was repeated at least three times.
# MV4-11 cells (parent) = assay: CellTiter-Blue cell viability; assay type: cell-based, human
# Procedure: (§2) Gibco/ThermoFisher). Parental TF-1 cells also require recombinant human GM-CSF (1 ng/mL; ThermoFisher). MOLM13 and MOLM14 cells were obtained from Leibniz Institute Deutsche Sammlung von Mikroorganismen (DSMZ) and grown in RPMI 1640 medium containing 20% FBS and Antibiotic-Antimycotic. […] Cell viability was assessed using the CellTiter-Blue reagent according to the manufacturer’s instructions (Promega). Fluorescence intensity, which correlates directly with viable cell number, was measured using a SpectraMax M5 microplate reader. Each experiment included three technical replicates per condition, and each experiment was repeated at least three times.
# MOLM13 cells (parent) = assay: CellTiter-Blue cell viability; assay type: cell-based, human
# Procedure: as §2
# MOLM14 cells (parent) = assay: CellTiter-Blue cell viability; assay type: cell-based, human
# Procedure: as §2
# [2] = read-out: A-419259 Sensitivity (IC50, nM) Initial, mean ± SE (n = 3)
# [3] = read-out: A-419259 Sensitivity (IC50, nM) Post-holiday, after 4 weeks passage in the absence of inhibitor, mean ± SE (n = 3)
# T20 sequence (Q9Y2U5 whole entry): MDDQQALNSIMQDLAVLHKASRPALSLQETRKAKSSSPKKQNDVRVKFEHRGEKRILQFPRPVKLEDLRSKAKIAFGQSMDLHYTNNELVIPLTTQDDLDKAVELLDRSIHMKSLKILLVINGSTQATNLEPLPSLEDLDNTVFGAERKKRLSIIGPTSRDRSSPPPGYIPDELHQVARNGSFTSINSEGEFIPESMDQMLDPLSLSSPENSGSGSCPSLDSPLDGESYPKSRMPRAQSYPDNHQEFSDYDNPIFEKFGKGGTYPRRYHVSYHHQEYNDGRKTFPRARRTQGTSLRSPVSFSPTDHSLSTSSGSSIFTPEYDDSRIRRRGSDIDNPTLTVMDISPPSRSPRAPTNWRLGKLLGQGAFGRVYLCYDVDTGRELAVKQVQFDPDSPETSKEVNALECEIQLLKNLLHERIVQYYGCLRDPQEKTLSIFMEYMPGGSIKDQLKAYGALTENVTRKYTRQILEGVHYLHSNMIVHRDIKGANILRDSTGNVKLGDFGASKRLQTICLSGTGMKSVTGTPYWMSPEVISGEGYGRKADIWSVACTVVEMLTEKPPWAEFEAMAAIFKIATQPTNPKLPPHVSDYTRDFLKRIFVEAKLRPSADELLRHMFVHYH
# T23 sequence (Q13043 whole entry): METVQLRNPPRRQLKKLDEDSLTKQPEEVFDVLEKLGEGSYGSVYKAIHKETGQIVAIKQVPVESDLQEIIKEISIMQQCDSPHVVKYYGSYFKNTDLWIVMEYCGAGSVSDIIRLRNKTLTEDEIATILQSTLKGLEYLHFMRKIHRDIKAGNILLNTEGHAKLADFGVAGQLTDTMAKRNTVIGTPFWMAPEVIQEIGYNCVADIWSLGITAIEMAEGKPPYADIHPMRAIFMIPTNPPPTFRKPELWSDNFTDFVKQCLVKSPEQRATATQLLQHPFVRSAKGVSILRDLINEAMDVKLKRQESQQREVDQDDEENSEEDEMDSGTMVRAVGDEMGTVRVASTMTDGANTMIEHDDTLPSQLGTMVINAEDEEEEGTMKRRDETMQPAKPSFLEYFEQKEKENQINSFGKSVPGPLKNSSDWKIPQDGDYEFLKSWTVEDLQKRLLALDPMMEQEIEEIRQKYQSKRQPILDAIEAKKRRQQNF
# T1 sequence (P51813 whole entry): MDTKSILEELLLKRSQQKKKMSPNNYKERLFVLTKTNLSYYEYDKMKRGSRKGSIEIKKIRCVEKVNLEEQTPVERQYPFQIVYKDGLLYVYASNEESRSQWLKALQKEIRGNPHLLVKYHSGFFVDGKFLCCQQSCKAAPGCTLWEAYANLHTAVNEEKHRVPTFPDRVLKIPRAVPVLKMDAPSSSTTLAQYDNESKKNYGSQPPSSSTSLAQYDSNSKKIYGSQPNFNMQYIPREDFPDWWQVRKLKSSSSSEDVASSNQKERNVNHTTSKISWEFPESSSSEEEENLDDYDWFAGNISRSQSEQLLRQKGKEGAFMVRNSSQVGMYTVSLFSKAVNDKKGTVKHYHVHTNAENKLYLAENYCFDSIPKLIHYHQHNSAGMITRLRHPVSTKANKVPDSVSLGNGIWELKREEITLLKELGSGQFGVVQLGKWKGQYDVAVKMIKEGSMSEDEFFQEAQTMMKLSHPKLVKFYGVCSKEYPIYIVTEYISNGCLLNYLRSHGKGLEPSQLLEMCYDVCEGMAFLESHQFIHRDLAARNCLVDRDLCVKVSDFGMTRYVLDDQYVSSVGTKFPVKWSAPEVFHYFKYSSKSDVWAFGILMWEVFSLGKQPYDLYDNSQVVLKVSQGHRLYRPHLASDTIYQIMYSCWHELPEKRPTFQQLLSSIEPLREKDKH
# T6 sequence (Q96J92 whole entry): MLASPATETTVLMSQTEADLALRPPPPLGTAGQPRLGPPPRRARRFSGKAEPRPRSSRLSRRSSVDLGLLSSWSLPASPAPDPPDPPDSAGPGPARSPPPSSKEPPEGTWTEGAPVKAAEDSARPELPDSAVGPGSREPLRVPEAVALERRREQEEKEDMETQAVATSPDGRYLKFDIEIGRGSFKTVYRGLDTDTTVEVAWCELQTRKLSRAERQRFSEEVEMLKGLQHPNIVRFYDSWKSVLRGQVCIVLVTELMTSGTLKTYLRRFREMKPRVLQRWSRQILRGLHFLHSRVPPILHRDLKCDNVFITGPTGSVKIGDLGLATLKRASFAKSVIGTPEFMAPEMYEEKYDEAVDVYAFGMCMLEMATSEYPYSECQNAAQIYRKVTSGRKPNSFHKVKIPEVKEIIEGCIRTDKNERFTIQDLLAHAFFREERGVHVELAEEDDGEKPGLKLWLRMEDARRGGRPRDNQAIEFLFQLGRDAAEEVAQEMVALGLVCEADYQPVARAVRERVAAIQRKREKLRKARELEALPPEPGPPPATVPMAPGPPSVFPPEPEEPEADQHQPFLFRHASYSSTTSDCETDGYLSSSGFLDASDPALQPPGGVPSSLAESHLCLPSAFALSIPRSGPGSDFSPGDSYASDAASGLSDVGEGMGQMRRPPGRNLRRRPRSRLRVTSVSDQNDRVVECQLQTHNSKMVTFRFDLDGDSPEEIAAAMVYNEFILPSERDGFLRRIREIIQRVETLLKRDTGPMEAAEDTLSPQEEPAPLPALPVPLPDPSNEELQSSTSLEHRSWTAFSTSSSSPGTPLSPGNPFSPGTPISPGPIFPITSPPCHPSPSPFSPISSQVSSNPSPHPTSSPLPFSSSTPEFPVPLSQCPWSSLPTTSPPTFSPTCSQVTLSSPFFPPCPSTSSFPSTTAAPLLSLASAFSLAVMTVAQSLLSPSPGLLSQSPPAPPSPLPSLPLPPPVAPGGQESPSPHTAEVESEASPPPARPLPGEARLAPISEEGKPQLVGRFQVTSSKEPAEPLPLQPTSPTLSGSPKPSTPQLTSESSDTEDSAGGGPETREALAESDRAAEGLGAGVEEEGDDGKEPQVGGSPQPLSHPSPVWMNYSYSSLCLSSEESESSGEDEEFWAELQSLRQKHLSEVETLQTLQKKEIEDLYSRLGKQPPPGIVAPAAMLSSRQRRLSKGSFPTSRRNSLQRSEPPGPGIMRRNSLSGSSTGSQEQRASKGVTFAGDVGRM
# T26 sequence (P10721 26-976 V559D): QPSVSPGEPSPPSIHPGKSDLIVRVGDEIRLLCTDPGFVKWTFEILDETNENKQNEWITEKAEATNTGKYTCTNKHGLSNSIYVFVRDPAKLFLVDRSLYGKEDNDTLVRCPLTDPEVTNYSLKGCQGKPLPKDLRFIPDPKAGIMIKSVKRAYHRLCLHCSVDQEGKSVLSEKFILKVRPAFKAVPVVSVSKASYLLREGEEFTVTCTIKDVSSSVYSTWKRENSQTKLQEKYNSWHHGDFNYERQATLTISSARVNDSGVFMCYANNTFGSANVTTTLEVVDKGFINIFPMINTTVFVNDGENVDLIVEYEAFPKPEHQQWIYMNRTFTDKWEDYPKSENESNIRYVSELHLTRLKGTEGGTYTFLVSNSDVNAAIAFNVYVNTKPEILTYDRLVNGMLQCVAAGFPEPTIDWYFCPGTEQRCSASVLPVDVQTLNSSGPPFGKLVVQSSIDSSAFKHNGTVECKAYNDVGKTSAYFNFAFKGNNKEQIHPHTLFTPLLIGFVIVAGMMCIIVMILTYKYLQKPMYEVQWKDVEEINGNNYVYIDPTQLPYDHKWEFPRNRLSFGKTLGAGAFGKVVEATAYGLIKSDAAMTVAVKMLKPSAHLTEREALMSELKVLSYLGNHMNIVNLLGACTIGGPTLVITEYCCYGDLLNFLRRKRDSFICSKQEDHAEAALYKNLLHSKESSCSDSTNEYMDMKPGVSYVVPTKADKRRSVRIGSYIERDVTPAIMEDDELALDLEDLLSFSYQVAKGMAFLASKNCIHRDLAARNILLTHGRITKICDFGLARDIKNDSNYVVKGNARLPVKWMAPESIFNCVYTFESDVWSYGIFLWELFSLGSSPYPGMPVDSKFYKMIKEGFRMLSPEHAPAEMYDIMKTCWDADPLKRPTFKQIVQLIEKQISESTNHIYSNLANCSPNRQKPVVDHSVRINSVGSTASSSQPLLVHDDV
# T9 sequence (O75385 whole entry): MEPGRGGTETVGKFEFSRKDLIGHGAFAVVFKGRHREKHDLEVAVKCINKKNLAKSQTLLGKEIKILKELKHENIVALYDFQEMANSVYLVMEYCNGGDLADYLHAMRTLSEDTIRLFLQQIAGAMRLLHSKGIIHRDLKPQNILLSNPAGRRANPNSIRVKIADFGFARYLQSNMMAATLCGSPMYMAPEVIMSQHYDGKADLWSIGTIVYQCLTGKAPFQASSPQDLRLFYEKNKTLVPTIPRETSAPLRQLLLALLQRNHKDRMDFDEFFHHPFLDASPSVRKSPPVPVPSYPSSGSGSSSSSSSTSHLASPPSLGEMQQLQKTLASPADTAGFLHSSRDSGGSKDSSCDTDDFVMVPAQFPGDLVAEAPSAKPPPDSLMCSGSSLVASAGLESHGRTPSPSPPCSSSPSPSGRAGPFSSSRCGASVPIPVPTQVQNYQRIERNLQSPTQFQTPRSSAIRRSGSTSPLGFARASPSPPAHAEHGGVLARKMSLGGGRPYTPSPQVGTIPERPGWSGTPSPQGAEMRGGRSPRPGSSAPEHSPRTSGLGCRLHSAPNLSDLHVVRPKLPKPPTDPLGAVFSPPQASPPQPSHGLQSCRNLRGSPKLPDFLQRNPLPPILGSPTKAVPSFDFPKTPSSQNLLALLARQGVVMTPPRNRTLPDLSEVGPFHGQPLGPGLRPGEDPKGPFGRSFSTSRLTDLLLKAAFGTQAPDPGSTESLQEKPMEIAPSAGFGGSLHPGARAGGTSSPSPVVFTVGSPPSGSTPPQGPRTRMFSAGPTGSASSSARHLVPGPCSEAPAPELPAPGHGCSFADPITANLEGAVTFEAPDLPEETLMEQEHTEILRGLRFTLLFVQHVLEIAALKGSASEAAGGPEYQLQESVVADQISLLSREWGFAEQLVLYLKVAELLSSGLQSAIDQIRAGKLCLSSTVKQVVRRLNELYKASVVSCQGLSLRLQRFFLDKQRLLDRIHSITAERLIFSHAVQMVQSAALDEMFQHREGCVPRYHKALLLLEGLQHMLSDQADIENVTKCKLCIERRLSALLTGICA
compound,measurement,setting,value
CN1CCN(C2CCC(n3cc(-c4ccc(Oc5ccccc5)cc4)c4c(N)ncnc43)CC2)CC1 (centres unmarked) [A-419259],% Control,BMX,30%
same,% Control,PIK3CA(Q546K),100%
same,% Control,PIK4CB,83%
same,% Control,AXL,6.1%
same,% Control,SIK2,19%
same,% Control,WNK4,39%
same,% Control,DAPK2,98%
same,% Control,OSR1,100%
same,% Control,ULK1,99%
same,% Control,PRKG2,100%
same,% Control,TAOK2,85%
same,% Control,CAMK2D,100%
same,% Control,IRAK1,98%
same,% Control,NLK,83%
same,% Control,BRSK2,10%
same,% Control,PFCDPK1(P.falciparum),0%
same,% Control,BMPR1B,92%
same,% Control,CDC2L2,91%
same,% Control,FLT3(D835V),0.15%
same,% Control,MAP3K2,1.7%
same,% Control,NEK7,91%
same,% Control,NEK10,100%
same,% Control,MST1,34%
same,% Control,TXK,13%
same,% Control,PIK3CA(I800L),98%
same,% Control,KIT(V559D),0.05%
same,% Control,"FLT3(ITD,D835V)",30%
same,growth inhibition,[1],less than 20%
same,IC50,"MV4-11 cells (parent); Fig 3A, 72 hours, read-out: IC50 (cell viability)",58 nM
same,IC50,"MV4-11 cells (parent); read-out: A-419259 Sensitivity (IC50, nM) Initial, MV4-11 Parent, mean ± SE (n = 3)",28.3 ± 3.5 nM
same,IC50,"MV4-11 cells (parent); read-out: A-419259 Sensitivity (IC50, nM) Post-holiday, MV4-11 Parent, after 4 weeks passage in the absence of inhibitor, mean ± SE (n = 3)",27.5 ± 4.3 nM
same,IC50,MOLM13 cells (parent); [2],40.3 ± 9.9 nM
same,IC50,MOLM13 cells (parent); [3],38.4 ± 0.9 nM
same,IC50,MOLM14 cells (parent); [2],14.3 ± 1.5 nM
same,IC50,MOLM14 cells (parent); [3],26.4 ± 7.7 nM

# From paper PMC6886798, “Expression of myeloid Src-family kinases is associated with poor prognosis in AML and influences Flt3-ITD kinase inhibitor acquired resistance” (PLoS ONE, 2019)
